Laboratory results published in patent publication US20070264200A1, “Mouse MRI for drug screening” (priority 2005, published 2007).
Values joined by “and” are separate entries in the source; they are usually repeats but may differ in a detail not shown here. Equal values may be shown once. Read-outs that look alike come from different tables or passages of the source.

What was measured:
[1] = Physiological monitoring (SaO2, heart rate, respiratory rate, ECG) during MRI, pre versus post contrast agent; assay type: in vivo; settings: for changes in SaO2, HR, RR or ECG parameters (ST, T wave morphology, rhythm), pre versus post contrast agent: up to 2 hours after contrast agent
From the text: Wild type C57BL/6 mice 6-10 months of age (25-30 gr) were used in all experiments. Since variations in physiological processes can influence the MRI signal in the brain, various monitoring devices were used while the mouse was being imaged. Heart rate, respiratory rate and SaO2 were continuously monitored using pulse oximetry (Model V33304, Sergivet). The probe was attached to the lower abdomen. A rectal temperature was continuously monitored with a thermestor (YSI Precision Thermometer 4000A).
ECG was monitored in a physiogard (SM 785, Brucker) by using subcutaneous silver electrodes from the front limbs and the reference electrode placed at the right posterior limb.
Comparisons were made within the groups pre with post contrast agent up to 2 hours after IV (feridex or gadodiamide) or IP GD (10 mmol/kg) (Table 1).
Thus, 10 mmol/kg was identified as the optimum dose of GD, and this dose was used for all further experiment unless otherwise indicated. […] Since the goal is to keep scan time as short as possible, in order to minimize morbidity and mortality, a 45 minutes time point was identified as the optimum post-contrast time interval.

[2] = humans; cited from earlier work
[3] = rats, IV; cited from earlier work
[4] = mice, IV; cited from earlier work
[5] = IP 15 mmol/kg, individual mice with toxicity, listed as GD

With CNC(=O)CN(CCN(CCN(CC(=O)[O-])CC(=O)NC)CC(=O)[O-])CC(=O)[O-].[Gd+3] [gadodiamide] the “changes in SaO2, HR, RR or ECG parameters (ST, T wave morphology, rhythm), pre versus post contrast agent” value ([1]; IP 10 mmol/kg) was “No significant changes”, the “RR (respiratory rate)” value [1, 5] was 100 and 110 and the SaO2 [1, 5] was 72 and 65. For the same molecule, the “toxicity (significant changes in vital signs)” value ([1]; IP 15 mmol/kg, two mice, procedure aborted) was “caused toxicity”, the “changes in SaO2, HR, RR or ECG parameters (ST, T wave morphology, rhythm), pre versus post contrast agent” value ([1]; IV) was “No significant changes” and the elimination half-life [2] was “approximately 1.5 hours”. For the same molecule, the elimination half-life [3] was “about 20 minutes” and the elimination half-life [4] was 5 to 6 min.
